No end group written: not given here.
Assays:
E. coli (BL21) [1] = experiment: Minimum bactericidal concentration (CFU counting); format: cell-based, Escherichia coli; conditions: ~5 × 10^5 CFU/mL, peptide 20 to 0.1 µM in Hepes 20 mM, 0.1 M NaCl, pH 7.5, 4 h at 37 °C, then plating, two independent experiments in triplicate
Protocol: (§1) Minimum Bactericidal Concentrations (MBC100) were determined by CFU counting following plating of bacterial culture onto Petri dishes after four hours of incubation with serial peptide concentrations. The ED50 was calculated by ATP quantification using the BacTiter-Glo™ Microbial Cell Viability kit (Promega, Madison, WI, USA). Cell cytotoxicity was quantified using resazurin reduction in human monocytes. Fifty percent cytotoxic concentration (CC50) was calculated as described in Materials and methods. […] Values are given as mean ± SEM.
(§2) The MBC of each peptide was determined as described previously. Bacteria were incubated at 37 °C overnight in Luria-Bertani broth (LB) and diluted to approximately 5 × 10^5 CFU/mL. The strains used in this study corresponded to Escherichia coli BL21 from Novagen (Madison, WI, USA), Staphylococcus aureus (ATCC502A) obtained from the Colección Española de Cultivos tipo (CECT), Universidad de Valencia, Spain, Pseudomonas aeruginosa (ATCC® 15692, PAO1), from the American Type Culture Collection (ATCC; Rockville, MD, USA) and P. aeruginosa PA14 were used as reference strains. Three clinical isolates of S. aureus, MRSA (34026, 36055 and 39413) and two clinical isolates of P. aeruginosa (M8C1 and M18C1) were obtained by the kind donation of the Centro de Investigaciones Microbiológicas, CIMIC (Universidad de los Andes, Bogotá, Colombia). […]

E. coli cells [2] = experiment: Bacterial cell leakage, SYTOX Green; format: cell-based, Escherichia coli; conditions: SYTOX Green 5 µM, 40 min, Triton X-100 = maximum, mean ± SEM
E. coli cells [3] = experiment: Bacterial membrane depolarization, DiSC3(5) dye; format: cell-based, Escherichia coli; conditions: DiSC3(5) 0.4 µM, peptide 0.1 to 5 µM, 20 °C, mean ± SEM
S. aureus (ATCC 502A) [4] = experiment: Bacterial viability by ATP quantification (BacTiter-Glo); format: cell-based, Staphylococcus aureus; conditions: ATP luminescence, 4 h at 37 °C, mean ± SEM, three replicates of two experiments
Protocol: as §1
(§3) Antibacterial activity was assayed by following the cell viability of E. coli and S. aureus, using the BacTiter-Glo™ Microbial Cell Viability kit (Promega), which measures the number of viable bacterial cells, by ATP quantification. ATP, as an indicator of metabolically active cells, is indirectly measured by a coupled luminescence detection assay. The luminescent signal is proportional to the amount of ATP required for the conversion of luciferin into oxyluciferin in the presence of luciferase.

primary human monocytes = experiment: Cytotoxicity by resazurin reduction; format: cell-based; conditions: human monocytes 4 × 10^5 cells/well, peptide up to 100 µM, 72 h at 37 °C
Protocol: as §1

[5] = Liposome agglutination by dynamic light scattering; conditions: DOPC/DOPG LUVs 30 µM; DLS; 25 °C; 10 mM Tris/HCl, 100 mM NaCl pH 7.4; peptide 0.1–2 µM
[6] = tested on: S.aureus (34026) clinical isolate, MRSA; experiment: Bacterial viability by ATP quantification (BacTiter-Glo); format: cell-based, Staphylococcus aureus; conditions: ATP luminescence, 4 h at 37 °C, mean ± SEM, three replicates of two experiments
Protocol: as §1
(§4) The MBC of each peptide was determined as described previously. Bacteria were incubated at 37 °C overnight in Luria-Bertani broth (LB) and diluted to approximately 5 × 10^5 CFU/mL. […]
as §3, with “The luminescent signal is proportional to the amount of ATP required for the conversion of luciferin into oxyluciferin in the presence of luciferase.” left out

[7] = tested on: S.aureus (39413) clinical isolate, MRSA; experiment: as above; format: cell-based, Staphylococcus aureus; conditions: ATP luminescence, 4 h at 37 °C, mean ± SEM, three replicates of two experiments
Protocol: as §1, §4
as §3, with “The luminescent signal is proportional to the amount of ATP required for the conversion of luciferin into oxyluciferin in the presence of luciferase.” left out

E. coli cells [8] = experiment: Minimum agglutination concentration on bacteria; format: cell-based, Escherichia coli; conditions: Tris-HCl, 0.1 M NaCl, pH 7.5, 1 h at 37 °C, visual inspection, 50× stereoscope
Protocol: For determination of minimum agglutination concentration (MAC) values, bacterial cells were grown at 37 °C to mid-exponential phase (OD600 = 0.6), centrifuged at 5000× g for 2 min, and resuspended in Tris-HCl buffer, 0.1 M NaCl, pH 7.5 to give an absorbance of 0.2 at 600 nm. A 100 µL aliquot of the bacterial suspension was incubated with the peptide at various (0.01–10 µM) concentrations at 37 °C for 1 h. Agglutination behavior was observed by visual inspection using a 50× stereoscope microscope and the MAC value was expressed as described.

[9] = tested on: S.aureus (36055) clinical isolate, MRSA; experiment: Bacterial viability by ATP quantification (BacTiter-Glo); format: cell-based, Staphylococcus aureus; conditions: ATP luminescence, 4 h at 37 °C, peptide up to 100 µM
Protocol: as §1, §4
as §3, with “The luminescent signal is proportional to the amount of ATP required for the conversion of luciferin into oxyluciferin in the presence of luciferase.” left out

E. coli (BL21) [10] = experiment: as above; format: cell-based, Escherichia coli; conditions: ATP luminescence, 4 h at 37 °C, Hepes 20 mM pH 7.5, 0.1 M NaCl, peptide 100 to 0.1 µM, mean ± SEM, three replicates of two experiments
Protocol: as §1, §3

E. coli cells [11] = experiment: FACS internalization of FITC-labeled peptides; format: cell-based, Escherichia coli; conditions: FITC-labeled peptide, sublethal concentration (0.5 µM), 10 min
Protocol: (§5) We performed FACS analysis in order to analyze the internalization of the FITC labeled peptides into E. coli and S. aureus cells. […] After corroborating the internalization of the peptides, the labeled peptide distribution was evaluated by FACS. Live/dead cell population was analyzed by monitoring the influx of propidium iodide (PI) at 10 min and 4 h of incubation.
(§6) Bacterial cell overnight culture was inoculated in a fresh LB to reach logarithmic phase OD600 of 0.2. A 500 µL aliquot of the bacterial suspension was incubated with 0.5 µM of each peptide for 10 min. After incubation and subsequently washes with 1× PBS at least thrice to remove presence of FITC-labeled peptide in the medium, 20,000 cells were subjected to FACS analysis using a FACSCalibur cytometer (BD Biosciences, Franklin Lakes, NJ, USA). The peptide bacterial uptake was assayed using 0.10 µM and 0.5 µM of each peptide at the first 10 min and after 4 h of peptide incubation.
(§7) (1 picture or pasted object on this page, not shown here)

[12] = Liposome leakage, ANTS/DPX; conditions: DOPC/DOPG (3:2) LUVs 30 µM, 37 °C, 20 mM NaCl, 10 mM Tris/HCl pH 7.5
[13] = tested on: S. aureus genes 16S, parE, MprF; experiment: Bacterial gene expression by RT-qPCR; format: cell-based, Staphylococcus aureus; conditions: 0.1 µM, 30 min, RT-qPCR normalized to GAPDH
Protocol: (§8) The bacterial gene expression of proteins implicated in stress pathways and bacterial resistance response was evaluated following incubation with sub-lethal concentrations of the peptides. The following genes were selected: DnaK gene encoding for a chaperone, ompC gene encoding for a protein porin; sbmA encoding for an integral inner membrane protein that participates in an ABC transporter, parE encoding for a DNA topoisomerase IV and MprF for a lysyl transferase that ensures the synthesis of lysylphosphatidylglycerol (LPG). Total bacterial RNA was extracted using the mirVAna™ Isolation Kit, which integrates an organic extraction and solid-phase extraction to obtain high yields of ultra-pure, high quality RNA. […] Ampicillin was used at the same concentration as a positive control. After incubation cells were sedimented and resuspended in lysis buffer. RNA isolation was done according to manufacturer’s instructions. The amount of RNA extracted was quantified using Quantus™ Fluorometer (Promega). […] Complementary DNA (cDNA) synthesis is the first step of the two-step quantitative reverse transcriptase Polymerase Chain Reaction (RT-qPCR). cDNA was generated by the enzyme reverse transcriptase (RT). An aliquot of 1000 ng of total RNA was used to synthesize cDNA according to the manufacture instruction of iScript™ cDNA Synthesis Kit.
Gene expression of Escherichia coli and Staphylococcus aureus after peptide incubation was determined by Real Time Quantitative Polymerase Chain Reaction (RT-qPCR). The amount of amplified product was measured at each PCR cycle by using fluorescent probes and reading the signal emitted from the dyes while performing the thermal cycling. 1 μL of cDNA (5 ng) was mixed with 2 μL of RNase free water, 5 μL of iTaq Universal Master SYBR green Supermix, 1 μL of each primer of interest (500 nM), for a total volume of 10 μL per reaction. The genes studied in E. coli cells correspond to DnaK, ompC, SbmA and 16S MprF, parE for S. aureus. […] Gene expression level was analyzed using a comparative quantification method ΔCq. […] Each sample was analyzed in triplicate. […]

[14] = tested on: E. coli genes DnaK, ompC, sbmA; experiment: Bacterial gene expression by RT-qPCR; format: cell-based, Escherichia coli; conditions: 0.1 µM, 30 min, RT-qPCR normalized to GAPDH
Protocol: as §8
Gene expression of Escherichia coli and Staphylococcus aureus after peptide incubation was determined by Real Time Quantitative Polymerase Chain Reaction (RT-qPCR). The amount of amplified product was measured at each PCR cycle by using fluorescent probes and reading the signal emitted from the dyes while performing the thermal cycling. 1 μL of cDNA (5 ng) was mixed with 2 μL of RNase free water, 5 μL of iTaq Universal Master SYBR green Supermix, 1 μL of each primer of interest (500 nM), for a total volume of 10 μL per reaction. The genes studied in E. coli cells correspond to DnaK, ompC, SbmA and 16S MprF, parE for S. aureus. GAPDH was used as housekeeping for date normalization in the qPCR assays. Gene expression level was analyzed using a comparative quantification method ΔCq. This method assesses the fold change compared to a calibrator sample (control or group of reference). Counts for genes of interest were adjusted in relation to a reference (housekeeper) gene GAPDH. Reactions were subjected to 60 °C for 1 min and 95 °C for 10 min, followed by 40 cycles of 95 °C for 15 s and 60 °C for 1 min. Each sample was analyzed in triplicate. Data analysis was performed using Bio-Rad CFX Manager. The figure of gene level expression was designed by R project.

S. aureus (ATCC 502A) [15] = experiment: Minimum bactericidal concentration (CFU counting); format: cell-based, Staphylococcus aureus; conditions: ~5 × 10^5 CFU/mL, peptide 20 to 0.1 µM in Hepes 20 mM, 0.1 M NaCl, pH 7.5, 4 h at 37 °C, then plating, two independent experiments in triplicate
Protocol: as §1, §2

S. aureus cells = experiment: FACS internalization of FITC-labeled peptides; format: cell-based, Staphylococcus aureus; conditions: FITC-labeled peptide, sublethal concentration (0.5 µM), 10 min
Protocol: as §5, §6, §7

pET28 plasmid DNA = experiment: DNA binding gel retardation assay; conditions: 200 ng pET28 plasmid DNA; peptide-to-DNA weight ratios 2.5:1, 5:1, 10:1; 20 min room temperature; 1.0% agarose gel
P. aeruginosa (PA14) = experiment: Bacterial viability by ATP quantification (BacTiter-Glo); format: cell-based, Pseudomonas aeruginosa; conditions: P. aeruginosa PA14 reference strain; ATP luminescence; 4 h at 37 °C; mean ± SEM, three replicates of two experiments
Protocol: as §1, §4
as §3, with “The luminescent signal is proportional to the amount of ATP required for the conversion of luciferin into oxyluciferin in the presence of luciferase.” left out

P. aeruginosa (PA01) = experiment: as above; format: cell-based, Pseudomonas aeruginosa; conditions: P. aeruginosa PA01 reference strain; ATP luminescence; 4 h at 37 °C; mean ± SEM, three replicates of two experiments
Protocol: as §1, §4
as §3, with “The luminescent signal is proportional to the amount of ATP required for the conversion of luciferin into oxyluciferin in the presence of luciferase.” left out

[16] = tested on: P. aeruginosa (M8C1) clinical isolate; experiment: as above; format: cell-based, Pseudomonas aeruginosa; conditions: ATP luminescence, 4 h at 37 °C, peptide up to 100 µM
Protocol: as §1, §4
as §3, with “The luminescent signal is proportional to the amount of ATP required for the conversion of luciferin into oxyluciferin in the presence of luciferase.” left out

[17] = tested on: P. aeruginosa (M18C1) clinical isolate; experiment: as above; format: cell-based, Pseudomonas aeruginosa; conditions: ATP luminescence, 4 h at 37 °C, peptide up to 100 µM
Protocol: as §1, §4
as §3, with “The luminescent signal is proportional to the amount of ATP required for the conversion of luciferin into oxyluciferin in the presence of luciferase.” left out

GLVGTLLGHIGKAILGG-OH [Peptide F2.3S, Frenatin 2.3S]
MBC100 (E. coli (BL21) [1]): 0.62 µM
Leakage (ED50), Bacteria (E. coli cells [2]): 0.1 ± 0.07 µM
Depolarization (ED50), Bacteria (E. coli cells [3]): 0.1 ± 0.05 µM
ED50 (S. aureus (ATCC 502A) [4]): 1.1 ± 0.07 µM
CC50 (primary human monocytes): >100 µM
Agglutination (MAC), Liposomes [5]: >2 µM
ED50 [6]: 55.82 ± 0.005 µM
ED50 [7]: 11.99 ± 0.001 µM
Agglutination (MAC), Bacteria (E. coli cells [8]): >5 µM
ED50 [9]: >100 µM
ED50 (E. coli (BL21) [10]): 0.23 ± 0.01 µM
Internalization into bacterial cells (FACS) (E. coli cells [11]): internalization within bacterial cells
Leakage (ED50), Liposomes [12]: 0.1 µM
16S gene expression [13]: did not induce significant changes
MprF gene expression [13]: did not induce significant changes
parE gene expression [13]: did not induce significant changes
DnaK gene expression [14]: upregulation
ompC gene expression [14]: upregulated
sbmA gene expression [14]: downregulation
MBC100 (S. aureus (ATCC 502A) [15]): 1.87 µM
Internalization into bacterial cells (FACS) (S. aureus cells): internalization within bacterial cells
DNA-binding activity (gel retardation) (pET28 plasmid DNA): high DNA-binding activity
ED50 (P. aeruginosa (PA14)): 3.1 ± 0.003 µM
ED50 (P. aeruginosa (PA01)): 3.4 ± 0.062 µM
ED50 [16]: >100 µM
ED50 [17]: >100 µM

CC1(C)S[C@@H]2[C@H](NC(=O)[C@H](N)c3ccccc3)C(=O)N2[C@H]1C(=O)O [ampicillin, Ampicillin, reference compound]
DnaK gene expression [14]: upregulated
sbmA gene expression [14]: mild reduction

— publication PMC6121439 (International Journal of Molecular Sciences, 2018)
